Source: patent US11414379B2, “SPAK kinase inhibitors as neuroprotective agents” (United States Government as represented by the Department …, priority 2018, dated 2022)

Legend:
[1] = tested on: AMPK (hum); assay: Kinase panel (Dundee profiling); format: biochemical, human
Method: (§1) The kinase selectivity of ZT-1a was further assessed using standard radioisotopic enzymatic assays against a panel of 140 recombinant kinases (Dundee profiling, Table 2) (Bain et al. (2007) The Biochemical journal 408, 297-315). ZT-1a at a concentration of 10 μM inhibited only MAPKAP-K2 activity 85±7% compared to DMSO control, representing high kinase selectivity.
(§2) Referring to Table 2, ZT-1a was tested at 10 and 1 μM against a panel of 140 recombinant kinases in an enzymatic activity-based assay performed by the International Centre for Kinase Profiling in the MRC Protein Phosphorylation and Ubiquitylation Unit. Values represent % residual kinase activity (mean+/−SEM, n=3). Kinases labelled with an asterick* are inhibited ≥50% by ZT-1a.

[2] = tested on: Ang II-mediated hypertensive mice, pdMCAO; assay: Infarct volume and hemispheric swelling after pdMCAO in Ang II-infused mice; format: in vivo, mouse; conditions: Ang II-infused mice (male or female); 2.5 mg/kg i.p. at 3 and 8 hrs after pdMCAO; 24 hrs; vs Veh
Method: C57BL/6J mice received subcutaneous (s.c.) infusion of either saline or AngII via osmotic minipumps (model 1004, Alzet) at a rate of 1000 ng/kg/min for 14 days. BP was measured in awake mice by a tail-cuff method (Kent Scientific) as described previously (Huang et al. (2019) Stroke. 50:1021-1025).
Saline-infused control and Ang II-mediated HTN mice were subsequently underwent permanent occlusion of the distal branches of the middle cerebral artery (pdMCAO) as described previously (Huang et al. (2019) Stroke. 50:1021-1025). Under isoflurane anesthesia, a skin incision at the midline of the neck was made and the left CCA was exposed and occluded by ligation and the skin was sutured. Another skin incision (1 cm) was made between the left eye and the ear using fine operation scissors. The temporal muscle was identified and detached from the skull in its apical and dorsal part without totally removing the muscle by the forceps. The MCA below the transparent skull in the rostral part of the temporal area, dorsal to the retro-orbital sinus was identified. If the MCA bifurcation was not visible (due to an anatomical normal variation), the most rostral vessel was identified. […] The artery, proximal and distal to the MCA bifurcation, was coagulated with the electrocoagulation forceps (in a bipolar mode at 7 W). […] The animal was placed in a cage and monitored for recovery from anesthesia. […]

[3] = biological target: TrkA (Homo sapiens, UniProt P04629); assay: Kinase panel (Dundee profiling); format: biochemical; conditions: read-out: % residual kinase activity
Method: as §1, §2

[4] = biological target: PIM1 (Homo sapiens, UniProt P11309); assay: Kinase panel (Dundee profiling); format: biochemical; conditions: read-out: % residual kinase activity
Method: as §1, §2

[5] = biological target: MINK1 (Homo sapiens, UniProt Q8N4C8); assay: Kinase panel (Dundee profiling); format: biochemical; conditions: read-out: % residual kinase activity
Method: as §1, §2

[6] = biological target: S6K1 (Homo sapiens, UniProt P23443); assay: Kinase panel (Dundee profiling); format: biochemical; conditions: read-out: % residual kinase activity
Method: as §1, §2

[7] = biological target: PAK4 (Homo sapiens, UniProt O96013); assay: Kinase panel (Dundee profiling); format: biochemical; conditions: read-out: % residual kinase activity
Method: as §1, §2

[8] = biological target: ZAP70 (Homo sapiens, UniProt P43403); assay: Kinase panel (Dundee profiling); format: biochemical; conditions: read-out: % residual kinase activity
Method: as §1, §2

[9] = biological target: PINK (Tribolium castaneum, UniProt D6WMX4); assay: Kinase panel (Dundee profiling); format: biochemical; conditions: read-out: % residual kinase activity
Method: as §1, §2

[10] = biological target: BRSK2 (Homo sapiens, UniProt Q8IWQ3); assay: Kinase panel (Dundee profiling); format: biochemical; conditions: read-out: % residual kinase activity
Method: as §1, §2

[11] = biological target: PLK1 (Homo sapiens, UniProt P53350); assay: Kinase panel (Dundee profiling); format: biochemical; conditions: read-out: % residual kinase activity
Method: as §1, §2

[12] = biological target: MARK3 (Homo sapiens, UniProt P27448); assay: Kinase panel (Dundee profiling); format: biochemical; conditions: read-out: % residual kinase activity
Method: as §1, §2

[13] = biological target: EIF2AK3 (Homo sapiens, UniProt Q9NZJ5); assay: Kinase panel (Dundee profiling); format: biochemical; conditions: read-out: % residual kinase activity
Method: as §1, §2

[14] = biological target: MNK1 (Homo sapiens, UniProt Q9BUB5); assay: Kinase panel (Dundee profiling); format: biochemical; conditions: read-out: % residual kinase activity
Method: as §1, §2

[15] = biological target: SmMLCK (Homo sapiens, UniProt Q15746); assay: Kinase panel (Dundee profiling); format: biochemical; conditions: read-out: % residual kinase activity
Method: as §1, §2

[16] = biological target: IRAK1 (Homo sapiens, UniProt P51617); assay: Kinase panel (Dundee profiling); format: biochemical; conditions: read-out: % residual kinase activity
Method: as §1, §2

[17] = biological target: MKK2 (Homo sapiens, UniProt P36507); assay: Kinase panel (Dundee profiling); format: biochemical; conditions: read-out: % residual kinase activity
Method: as §1, §2

[18] = biological target: RSK1 (Homo sapiens, UniProt Q15418); assay: Kinase panel (Dundee profiling); format: biochemical; conditions: read-out: % residual kinase activity
Method: as §1, §2

[19] = biological target: JNK3 (Homo sapiens, UniProt P53779); assay: Kinase panel (Dundee profiling); format: biochemical; conditions: read-out: % residual kinase activity
Method: as §1, §2

[20] = biological target: MKK6 (Homo sapiens, UniProt P52564); assay: Kinase panel (Dundee profiling); format: biochemical; conditions: read-out: % residual kinase activity
Method: as §1, §2

[21] = biological target: MELK (Homo sapiens, UniProt Q14680); assay: Kinase panel (Dundee profiling); format: biochemical; conditions: read-out: % residual kinase activity
Method: as §1, §2

Sequence of PIM1 (P11309 whole entry, species assumed): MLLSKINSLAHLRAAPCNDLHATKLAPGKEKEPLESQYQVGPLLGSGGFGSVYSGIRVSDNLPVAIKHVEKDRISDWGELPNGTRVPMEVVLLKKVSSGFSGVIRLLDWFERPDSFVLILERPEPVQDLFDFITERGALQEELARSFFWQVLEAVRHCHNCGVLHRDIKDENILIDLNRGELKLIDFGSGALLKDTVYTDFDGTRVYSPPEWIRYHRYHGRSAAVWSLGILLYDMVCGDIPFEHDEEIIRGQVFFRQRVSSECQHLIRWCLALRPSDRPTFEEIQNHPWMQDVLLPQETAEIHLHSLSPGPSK
Sequence of S6K1 (P23443 whole entry, species assumed): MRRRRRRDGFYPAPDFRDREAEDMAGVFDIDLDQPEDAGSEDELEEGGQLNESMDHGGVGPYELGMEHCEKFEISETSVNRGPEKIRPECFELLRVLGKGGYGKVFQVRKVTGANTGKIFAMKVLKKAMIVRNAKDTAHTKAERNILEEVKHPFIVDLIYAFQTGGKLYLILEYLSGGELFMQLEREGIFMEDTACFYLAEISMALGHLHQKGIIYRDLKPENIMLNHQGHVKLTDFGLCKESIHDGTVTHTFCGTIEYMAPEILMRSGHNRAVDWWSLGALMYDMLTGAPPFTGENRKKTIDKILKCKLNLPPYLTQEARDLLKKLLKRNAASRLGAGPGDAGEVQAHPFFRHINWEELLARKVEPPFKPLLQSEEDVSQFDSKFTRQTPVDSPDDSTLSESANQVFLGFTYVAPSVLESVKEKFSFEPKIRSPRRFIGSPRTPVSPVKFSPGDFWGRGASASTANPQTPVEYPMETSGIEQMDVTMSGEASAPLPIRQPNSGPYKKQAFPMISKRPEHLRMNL
Sequence of IRAK1 (P51617 whole entry, species assumed): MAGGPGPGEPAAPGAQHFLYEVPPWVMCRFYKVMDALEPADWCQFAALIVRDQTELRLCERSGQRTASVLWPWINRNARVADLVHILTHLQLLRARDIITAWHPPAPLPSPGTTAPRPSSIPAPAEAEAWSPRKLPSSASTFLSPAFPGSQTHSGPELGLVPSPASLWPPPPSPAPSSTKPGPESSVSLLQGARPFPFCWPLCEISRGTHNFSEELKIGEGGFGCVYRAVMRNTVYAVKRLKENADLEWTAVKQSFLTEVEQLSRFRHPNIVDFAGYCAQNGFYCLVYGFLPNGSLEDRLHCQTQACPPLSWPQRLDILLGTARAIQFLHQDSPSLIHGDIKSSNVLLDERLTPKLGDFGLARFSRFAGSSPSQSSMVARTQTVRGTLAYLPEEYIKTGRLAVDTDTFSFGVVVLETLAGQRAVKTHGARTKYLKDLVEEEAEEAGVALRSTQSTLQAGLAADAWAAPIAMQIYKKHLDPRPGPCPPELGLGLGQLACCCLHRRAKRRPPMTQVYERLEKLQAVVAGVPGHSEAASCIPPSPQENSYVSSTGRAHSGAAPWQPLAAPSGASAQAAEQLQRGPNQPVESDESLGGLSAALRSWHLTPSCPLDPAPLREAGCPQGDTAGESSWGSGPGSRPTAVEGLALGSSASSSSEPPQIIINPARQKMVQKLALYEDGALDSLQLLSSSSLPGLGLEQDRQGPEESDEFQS
Sequence of MARK3 (P27448 whole entry, species assumed): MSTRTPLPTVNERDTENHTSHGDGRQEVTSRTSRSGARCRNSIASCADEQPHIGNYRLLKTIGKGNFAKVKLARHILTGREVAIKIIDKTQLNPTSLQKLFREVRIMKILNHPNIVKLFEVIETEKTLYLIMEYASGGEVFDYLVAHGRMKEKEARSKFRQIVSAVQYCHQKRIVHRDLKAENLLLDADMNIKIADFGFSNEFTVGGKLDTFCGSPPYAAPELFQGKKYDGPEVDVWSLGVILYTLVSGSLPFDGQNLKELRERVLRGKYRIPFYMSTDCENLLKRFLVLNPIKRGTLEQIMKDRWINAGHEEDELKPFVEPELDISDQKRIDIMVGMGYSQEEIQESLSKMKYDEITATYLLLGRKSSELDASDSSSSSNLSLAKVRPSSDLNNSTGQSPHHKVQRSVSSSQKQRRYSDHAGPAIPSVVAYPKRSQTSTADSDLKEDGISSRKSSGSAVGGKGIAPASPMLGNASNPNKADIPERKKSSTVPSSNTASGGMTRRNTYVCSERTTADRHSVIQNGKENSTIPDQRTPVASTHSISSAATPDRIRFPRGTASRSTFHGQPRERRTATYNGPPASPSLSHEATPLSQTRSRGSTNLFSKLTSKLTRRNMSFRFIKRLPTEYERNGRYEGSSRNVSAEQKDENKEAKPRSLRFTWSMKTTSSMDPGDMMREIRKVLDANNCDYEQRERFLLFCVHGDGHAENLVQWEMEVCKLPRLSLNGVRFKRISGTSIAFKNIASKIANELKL
Sequence of SmMLCK (Q15746 923-1914): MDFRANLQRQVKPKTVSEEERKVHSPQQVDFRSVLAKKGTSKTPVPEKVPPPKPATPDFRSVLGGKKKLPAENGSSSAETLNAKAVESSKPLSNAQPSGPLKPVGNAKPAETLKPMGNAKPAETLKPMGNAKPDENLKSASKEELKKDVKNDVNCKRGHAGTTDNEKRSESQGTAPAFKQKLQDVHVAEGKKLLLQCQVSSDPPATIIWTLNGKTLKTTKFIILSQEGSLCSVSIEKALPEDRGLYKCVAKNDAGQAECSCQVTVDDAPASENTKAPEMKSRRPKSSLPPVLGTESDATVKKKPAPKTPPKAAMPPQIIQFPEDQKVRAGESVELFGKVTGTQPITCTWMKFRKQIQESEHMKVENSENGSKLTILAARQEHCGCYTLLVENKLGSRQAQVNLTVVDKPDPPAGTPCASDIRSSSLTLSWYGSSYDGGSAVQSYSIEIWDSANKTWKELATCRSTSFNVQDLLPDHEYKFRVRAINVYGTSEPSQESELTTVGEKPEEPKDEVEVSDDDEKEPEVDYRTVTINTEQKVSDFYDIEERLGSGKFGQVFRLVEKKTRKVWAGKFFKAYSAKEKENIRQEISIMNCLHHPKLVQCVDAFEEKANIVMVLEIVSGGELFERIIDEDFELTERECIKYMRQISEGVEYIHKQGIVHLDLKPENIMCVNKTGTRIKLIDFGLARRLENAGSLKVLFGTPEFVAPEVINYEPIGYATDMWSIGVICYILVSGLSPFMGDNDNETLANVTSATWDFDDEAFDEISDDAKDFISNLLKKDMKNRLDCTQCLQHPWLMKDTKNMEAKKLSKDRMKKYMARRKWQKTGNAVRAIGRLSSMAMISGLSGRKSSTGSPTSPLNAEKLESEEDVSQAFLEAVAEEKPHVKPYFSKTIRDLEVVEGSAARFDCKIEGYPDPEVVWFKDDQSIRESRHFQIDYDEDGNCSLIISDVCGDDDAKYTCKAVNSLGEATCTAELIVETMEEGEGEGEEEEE
Sequence of TrkA (P04629 33-796, species assumed): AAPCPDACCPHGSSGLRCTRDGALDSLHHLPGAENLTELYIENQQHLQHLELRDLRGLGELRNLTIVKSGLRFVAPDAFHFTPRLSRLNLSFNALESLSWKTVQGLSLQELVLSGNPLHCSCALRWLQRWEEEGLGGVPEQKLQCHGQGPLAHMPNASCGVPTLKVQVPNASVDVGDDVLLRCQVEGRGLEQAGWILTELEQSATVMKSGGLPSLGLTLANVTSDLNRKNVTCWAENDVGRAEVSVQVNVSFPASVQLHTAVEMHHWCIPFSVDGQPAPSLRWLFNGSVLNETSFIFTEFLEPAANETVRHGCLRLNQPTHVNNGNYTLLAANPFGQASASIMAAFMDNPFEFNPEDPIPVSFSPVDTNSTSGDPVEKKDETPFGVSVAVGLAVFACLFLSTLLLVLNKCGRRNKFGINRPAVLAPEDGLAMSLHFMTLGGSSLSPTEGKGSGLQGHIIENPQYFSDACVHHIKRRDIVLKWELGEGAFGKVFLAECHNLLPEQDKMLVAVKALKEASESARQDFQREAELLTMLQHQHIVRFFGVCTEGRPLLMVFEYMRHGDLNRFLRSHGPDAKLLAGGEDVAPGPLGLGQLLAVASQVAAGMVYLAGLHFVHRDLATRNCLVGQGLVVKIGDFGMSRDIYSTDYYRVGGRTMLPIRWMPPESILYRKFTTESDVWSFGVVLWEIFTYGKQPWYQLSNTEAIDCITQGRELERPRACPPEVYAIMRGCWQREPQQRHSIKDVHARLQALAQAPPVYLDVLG
Sequence of MKK2 (P36507 whole entry, species assumed): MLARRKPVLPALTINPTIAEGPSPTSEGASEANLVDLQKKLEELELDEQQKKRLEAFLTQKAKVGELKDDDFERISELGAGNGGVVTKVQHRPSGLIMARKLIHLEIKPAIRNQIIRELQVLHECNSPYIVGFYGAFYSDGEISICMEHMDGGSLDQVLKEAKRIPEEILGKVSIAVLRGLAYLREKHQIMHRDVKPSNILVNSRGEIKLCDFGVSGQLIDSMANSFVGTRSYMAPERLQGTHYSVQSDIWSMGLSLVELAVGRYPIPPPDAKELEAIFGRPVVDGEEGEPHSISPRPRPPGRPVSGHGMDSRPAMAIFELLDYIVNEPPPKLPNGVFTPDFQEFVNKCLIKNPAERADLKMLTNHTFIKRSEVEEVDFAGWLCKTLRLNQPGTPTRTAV
Sequence of MNK1 (Q9BUB5 whole entry, species assumed): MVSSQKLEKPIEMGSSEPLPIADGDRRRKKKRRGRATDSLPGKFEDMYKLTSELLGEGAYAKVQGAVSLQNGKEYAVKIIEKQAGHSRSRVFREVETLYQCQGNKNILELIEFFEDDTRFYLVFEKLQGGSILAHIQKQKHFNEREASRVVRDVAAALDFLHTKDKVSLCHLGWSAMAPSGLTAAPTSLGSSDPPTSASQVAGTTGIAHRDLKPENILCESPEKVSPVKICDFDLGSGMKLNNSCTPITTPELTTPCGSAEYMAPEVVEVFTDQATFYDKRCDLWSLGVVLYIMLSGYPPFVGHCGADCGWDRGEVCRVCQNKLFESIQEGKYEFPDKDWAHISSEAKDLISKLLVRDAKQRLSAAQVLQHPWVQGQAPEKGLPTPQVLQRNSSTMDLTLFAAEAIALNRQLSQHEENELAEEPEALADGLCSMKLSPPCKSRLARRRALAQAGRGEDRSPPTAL

Cc1cc(C(C#N)c2ccc(Cl)cc2)c(Cl)cc1NC(=O)c1cc(Cl)ccc1O (stereo not drawn) [ZT-1a, 5-chloro-N-(5-chloro-4-((4-chlorophenyl)(cyano)methyl)-2-methylphenyl)-2-hydroxy-benzamide]
% residual kinase activity ([1]; 1 μM): 126 ± 4% | % residual kinase activity ([1]; 10 μM): 108 ± 4% | decrease of hemispheric swelling [2]: ~50% | decrease of infarct volume [2]: ~50% | remaining activity at 1 µM ([3]; 1 μM): 108 ± 9% | remaining activity at 10 µM ([3]; 10 μM): 91 ± 7% | remaining activity at 1 µM ([4]; 1 μM): 108 ± 19% | remaining activity at 10 µM ([4]; 10 μM): 101 ± 8% | remaining activity at 1 µM ([5]; 1 μM): 107 ± 5% | remaining activity at 10 µM ([5]; 10 μM): 108 ± 6% | remaining activity at 1 µM ([6]; 1 μM): 119 ± 10% | remaining activity at 10 µM ([6]; 10 μM): 81 ± 2% | remaining activity at 1 µM ([7]; 1 μM): 81 ± 16% | remaining activity at 10 µM ([7]; 10 μM): 51 ± 3% | remaining activity at 1 µM ([8]; 1 μM): 120 ± 1% | remaining activity at 10 µM ([8]; 10 μM): 97 ± 9% | remaining activity at 1 µM ([9]; 1 μM): 101 ± 13% | remaining activity at 10 µM ([9]; 10 μM): 59 ± 4% | remaining activity at 1 µM ([10]; 1 μM): 115 ± 14% | remaining activity at 10 µM ([10]; 10 μM): 104% | remaining activity at 1 µM ([11]; 1 μM): 72 ± 1% | remaining activity at 10 µM ([11]; 10 μM): 93 ± 21% | remaining activity at 1 µM ([12]; 1 μM): 71 ± 6% | remaining activity at 10 µM ([12]; 10 μM): 68 ± 8% | remaining activity at 1 µM ([13]; 1 μM): 114 ± 2% | remaining activity at 10 µM ([13]; 10 μM): 100 ± 3% | remaining activity at 1 µM ([14]; 1 μM): 78 ± 19% | remaining activity at 10 µM ([14]; 10 μM): 87 ± 2% | remaining activity at 1 µM ([15]; 1 μM): 99 ± 3% | remaining activity at 10 µM ([15]; 10 μM): 98 ± 9% | remaining activity at 1 µM ([16]; 1 μM): 128 ± 2% | remaining activity at 10 µM ([16]; 10 μM): 95 ± 7% | remaining activity at 1 µM ([17]; 1 μM): 126 ± 2% | remaining activity at 10 µM ([17]; 10 μM): 81 ± 27% | remaining activity at 1 µM ([18]; 1 μM): 95 ± 2% | remaining activity at 10 µM ([18]; 10 μM): 87 ± 4% | remaining activity at 1 µM ([19]; 1 μM): 63 ± 15% | remaining activity at 10 µM ([19]; 10 μM): 60 ± 10% | remaining activity at 1 µM ([20]; 1 μM): 102 ± 12% | remaining activity at 10 µM ([20]; 10 μM): 82 ± 16% | remaining activity at 1 µM ([21]; 1 μM): 130 ± 34% | remaining activity at 10 µM ([21]; 10 μM): 63 ± 3%
